Reference: paper PMC5743599 (Antiviral research, 2017)

Assays:
[1] = test system: HBV genotype A; experiment: Pilot/preliminary efficacy study in HBV genotype A-infected huFRG KO mice; assay type: in vivo, hepatitis B virus
[2] = test system: HBV genotype C; experiment: Primary efficacy study in HBV genotype C-infected huFRG KO mice; assay type: in vivo, hepatitis B virus
[3] = Tolerability; assay type: in vivo, huFRG KO mice; conditions: for weight recovery after the treatment phase: primary study, post-treatment
[4] = test system: HBV; experiment: HBV transgenic mouse model; assay type: in vivo, hepatitis B virus; conditions: HBV transgenic mice, 100 mg/kg daily IP; data not shown
[5] = Single and repeat dose maximum tolerated dose studies; assay type: in vivo, C57Bl/6 mice or huFRG KO mice
[6] = entecavir 1 mg/kg/day PO, Days 59-72, genotype C

Row | Structure (SMILES) | Viral titers rebounded to pretreatment levels by Day ([1]; after entecavir withdrawal (treatment days 71-84), genotype A) [days] | drop in HBV titers more than the control animals ([1]; entecavir 1.0 mg/kg PO two weeks, Days 70 to 85, genotype A, plasma) [log] | decrease in HBV titers after one week of treatment [2, 6] [log] | decrease in HBV titers after two weeks [2, 6] [log] | weight recovery after the treatment phase [3] | reduction of intrahepatic DNA accumulation [4] | reduction of serum viremia [4] | suppression of HBV viremia (average) after one week ([1]; 50 and 100 mg/kg/day IP, Days 160-173, vs pretreatment Day 159, genotype A) [log] | suppression of HBV viremia at week two ([1]; 50 and 100 mg/kg/day IP, surviving mice, genotype A) | decrease in HBV titers (trend) in pilot experiment ([1]; genotype A, #208 treated animals) [log] | decrease in HBV titers after one week compared to control mice ([2]; 100 mg/kg/day IP, genotype C) [log] | decrease in HBV titers after two weeks of dosing compared to control mice ([2]; 100 mg/kg/day IP, genotype C) [log] | deaths / moribundity in post-dosing phase of primary study ([3]; Day 87-88, one animal per group, not with certainty test article-related) | Dose-limiting toxicity ([5]; non-infected mice, IP) | maximum tolerated dose (MTD) ([5]; single and repeat IP injections up to seven days, male C57Bl/6 or huFRG KO mice) [mg/kg]
1 | C=C1[C@H](CO)[C@@H](O)C[C@@H]1n1cnc2c(=O)[nH]c(N)nc21 [entecavir, Entecavir, reference compound] | ≤ 159 | 2.8 | 2.6 | 3.2 | some weight gain occurred | – | – | – | – | – | – | – | – | – | –
2 | CC(=Nc1ccccc1N)c1c(C)cc(=O)n(O)c1O [#208] | – | – | – | – | some weight gain occurred | failed to reduce | failed to reduce | 1.1 | sustained | ~1 | 1.6 | 1.4 | found dead | >10% weight loss, hypoactivity, unkempt appearance, feeling cool-to-touch, and distended abdomen | 100
